Here are results for 27 compounds from patent publication US20050004186A1, “MEK inhibiting compounds” (Pfizer Inc, priority 2002, published 2005).

This test relates to MEK. The experiment in a line: Cellular assay for measuring MEK inhibition, C26CPA1 (inhibition of ERK phosphorylation in C26 cells). The settings on record: for IC50: murine colon 26 (C26) carcinoma cells, one hour at 37 C; for C26CPA1 % Inhibition @ 0.1 μM / C26CPA1 % Inhibition @ 1 μM: C26 cells. The class given is cell-based, murine. The protocol:
Cellular Assay for Measuring MEK Inhibition
MEK inhibitors were evaluated by determining their ability to inhibit phosphorylation of MAP kinase (ERK) in murine colon 26 (C26) carcinoma cells. Since ERK1 and ERK2 represent the only known substrates for MEK1 and MEK2, the measurement of inhibition of ERK phosphorylation in cells provides direct read out of cellular MEK inhibition by the compounds of the invention. Detection of phosphorylation of ERK was carried out either by Western blot or ELISA format. Briefly, the assays involve treatment of exponentially growing C26 cells with varying concentrations of the test compound (or vehicle control) for one hour at 37≡ C. For Western blot assay, cells were rinsed free of compound/vehicle and lysed in a solution containing 70 mM NaCl, 50 mM glycerol phosphate, 10 mM HEPES, […], 1% Triton X-100, 1 mM Na3VO4, 100 μM PMSF, 10 μM leupeptin and 10 μM pepstatin. Supernatants were then subjected to gel electrophoresis and hybridized to a primary antibody recognizing dually phosphorylated ERK1 and ERK2. To evaluate total MAPK levels, blots were subsequently ‘stripped’ and re-probed with a 1:1 mixture of polyclonal antibodies recognizing unphosphorylated ERK1 and ERK2. For pERK ELISA assay, pERK TiterZyme Enzyme immunometric Assay kits were acquired from Assay Designs, Inc (Ann Arbor, Mich.). Briefly, cells were harvested in lysis solution containing 50 mM β-glycerophosphate, 10 mM HEPES, pH7.4, 70 mM NaCl, 2 mM EDTA and 1% SDS and protein lysates were diluted 1:15 with supplied Assay buffer prior to the execution of the assay. The subsequent steps were carried out essentially as recommended by the manufacturer.

Some results are limits rather than exact numbers.

In the case of `Nc1nnc(-c2cc(Cl)c(F)c(F)c2Nc2ccc(I)cc2F)o1` [Example 2, 5-[5-Chloro-3,4-difluoro-2-(2-fluoro-4-iodo-phenylamino)-phenyl]-[1,3,4]oxadiazol-2-ylamine], the IC50 (commonly the point on the concentration scale where inhibition reaches its midpoint) turned out to be 18 nM.

Take `Nc1nnc(-c2ccc(F)c(F)c2Nc2ccc(Br)cc2F)o1` [Example 3, 5-[2-(4-Bromo-2-fluoro-phenylamino)-3,4-difluoro-phenyl]-[1.3,4]oxadiazol-2-ylamine]: the IC50 was found to be 140 nM. Against the preceding compound, the IC50 is about 7.8-fold higher.

As for `Fc1cc(I)ccc1Nc1c(-c2nnc(NCCCN3CCOCC3)o2)ccc(F)c1F` [Example 9, {5-[3,4-Difluoro-2-(2-fluoro-4-iodo-phenylamino)-phenyl]-[1,3,4]oxadiazol-2-yl}-(3-morpholin-4-yl-propyl)-amine], half-maximal inhibition (IC50) was put at 311 nM.

In the case of `CN(C)CCCN(C)c1nnc(-c2ccc(F)c(F)c2Nc2ccc(I)cc2F)o1` [Example 12, N-{5-[3,4-Difluoro-2-(2-fluoro-4-iodo-phenylamino)-phenyl]-[1,3,4]oxadiazol-2-yl}-N,N′,N′-trimethyl-propane-1,3-diamine], the half-maximal inhibitory concentration (IC50) was > 1000 nM.

`Fc1cc(I)ccc1Nc1c(-c2nnc(NCCN3CCCCC3)o2)ccc(F)c1F` [Example 13, {5-[3,4-Difluoro-2-(2-fluoro-4-iodo-phenylamino)-phenyl]-[1,3,4]oxadiazol-2-yl}-(2-piperidin-1-yl-ethyl)-amine]: half-maximal inhibition (IC50) required 382 nM.

`NCCCCNc1nnc(-c2ccc(F)c(F)c2Nc2ccc(I)cc2F)o1` [Example 14, N′1′-{5-[3,4-Difluoro-2-(2-fluoro-4-iodo-phenylamino)-phenyl]-[1,3,4]oxadiazol-2-yl}-butane-1,4-diamine] came in with an IC50 of 45 nM. This IC50 lies about 8.5-fold lower than the previous one.

The compound `NCCCNc1nnc(-c2ccc(F)c(F)c2Nc2ccc(I)cc2F)o1` [Example 15, N′1′-{5-[3,4-Difluoro-2-(2-fluoro-4-iodo-phenylamino)-phenyl]-[1,3,4]oxadiazol-2-yl}-propane-1,3-diamine] showed an IC50 of 76 nM.

`CN(C)CCCNc1nnc(-c2ccc(F)c(F)c2Nc2ccc(I)cc2F)o1` [Example 16, N-{5-[3,4-Difluoro-2-(2-fluoro-4-iodo-phenylamino)-phenyl]-[1,3,4]oxadiazol-2-yl}-N′,N′-dimethyl-propane-1,3-diamine] came in with an IC50 of 136 nM.

In turn, `CN(C)CCNc1nnc(-c2ccc(F)c(F)c2Nc2ccc(I)cc2F)o1` [Example 17, N-{5-[3,4-Difluoro-2-(2-fluoro-4-iodo-phenylamino)-phenyl]-[1,3,4]oxadiazol-2-yl}-N′,N′-dimethyl-ethane-1,2-diamine] showed a half-maximal inhibitory concentration (IC50) of 140 nM.

For the compound `CNCCNc1nnc(-c2ccc(F)c(F)c2Nc2ccc(I)cc2F)o1` [Example 18, N-{5-[3,4-Difluoro-2-(2-fluoro-4-iodo-phenylamino)-phenyl]-[1,3,4]oxadiazol-2-yl}-N′-methyl-ethane-1,2-diamine], the concentration for half-maximal inhibition (IC50) is 27 nM.

Turning to `COCCCNc1nnc(-c2ccc(F)c(F)c2Nc2ccc(I)cc2F)o1` [Example 20, {5-[3,4-Difluoro-2-(2-fluoro-4-iodo-phenylamino)-phenyl]-[1,3,4]oxadiazol-2-yl}-(3-methoxy-propyl)-amine], the IC50 was determined as 80 nM.

Turning to `COCCNc1nnc(-c2ccc(F)c(F)c2Nc2ccc(I)cc2F)o1` [Example 33, {5-[3,4-Difluoro-2-(2-fluoro-4-iodo-phenylamino)-phenyl]-[1,3,4]oxadiazol-2-yl}-(2-methoxy-ethyl)-amine], the “C26CPA1 % Inhibition @ 0.1 μM” value is 0% and the “C26CPA1 % Inhibition @ 1 μM” value turned out to be 57.7%.

On to `Fc1cc(I)ccc1Nc1c(-c2nnc(NCCOc3ccccc3)o2)ccc(F)c1F` [Example 34, {5-[3,4-Difluoro-2-(2-fluoro-4-iodo-phenylamino)-phenyl]-[1,3,4]oxadiazol-2-yl}-(2-phenoxy-ethyl)-amine], for which the “C26CPA1 % Inhibition @ 0.1 μM” value stood at 0% and the “C26CPA1 % Inhibition @ 1 μM” value amounted to 69%.

For `Fc1cc(I)ccc1Nc1c(-c2nnc(NCCc3ccncc3)o2)ccc(F)c1F` [Example 35, {5-[3,4-Difluoro-2-(2-fluoro-4-iodo-phenylamino)-phenyl]-[1,3,4]oxadiazol-2-yl}-(2-pyridin-4-yl-ethyl)-amine], the “C26CPA1 % Inhibition @ 0.1 μM” value worked out at 0% and the “C26CPA1 % Inhibition @ 1 μM” value amounted to 74.9%.

Consider `CCCCNc1nnc(-c2ccc(F)c(F)c2Nc2ccc(I)cc2F)o1` [Example 36, Butyl-{5-[3,4-difluoro-2-(2-fluoro-4-iodo-phenylamino)-phenyl]-[1,3,4]oxadiazol-2-yl}-amine], for which the “C26CPA1 % Inhibition @ 0.1 μM” value worked out at 23.8% and the “C26CPA1 % Inhibition @ 1 μM” value was 67%.

As for `Cc1ccc(CNc2nnc(-c3ccc(F)c(F)c3Nc3ccc(I)cc3F)o2)o1` [Example 37, {5-[3,4-Difluoro-2-(2-fluoro-4-iodo-phenylamino)-phenyl]-[1,3,4]oxadiazol-2-yl}-(5-methyl-furan-2-ylmethyl)-amine], the “C26CPA1 % Inhibition @ 0.1 μM” value stood at 18.4% and the “C26CPA1 % Inhibition @ 1 μM” value is reported as 87.2%.

`Fc1cc(I)ccc1Nc1c(-c2nnc(NCCc3cccs3)o2)ccc(F)c1F` [Example 38, {5-[3,4-Difluoro-2-(2-fluoro-4-iodo-phenylamino)-phenyl]-[1,3,4]oxadiazol-2-yl}-(2-thiophen-2-yl-ethyl)-amine]: the “C26CPA1 % Inhibition @ 0.1 μM” value is on record as 0% and the “C26CPA1 % Inhibition @ 1 μM” value turned out to be 65.1%.

On to `COc1cccc(CCNc2nnc(-c3ccc(F)c(F)c3Nc3ccc(I)cc3F)o2)c1` [Example 39, {5-[3,4-Difluoro-2-(2-fluoro-4-iodo-phenylamino)-phenyl]-[1,3,4]oxadiazol-2-yl}-[2-(3-methoxy-phenyl)-ethyl]-amine], for which the “C26CPA1 % Inhibition @ 0.1 μM” value stood at 0% and the “C26CPA1 % Inhibition @ 1 μM” value is recorded as 40.2%.

Consider `COc1ccc(CCNc2nnc(-c3ccc(F)c(F)c3Nc3ccc(I)cc3F)o2)cc1OC` [Example 40, {5-[3,4-Difluoro-2-(2-fluoro-4-iodo-phenylamino)-phenyl]-[1,3,4]oxadiazol-2-yl}-[2-(3,4-dimethoxy-phenyl)-ethyl]-amine], for which the “C26CPA1 % Inhibition @ 0.1 μM” value is 0% and the “C26CPA1 % Inhibition @ 1 μM” value turned out to be 26.2%.

Consider `COc1ccc(OC)c(CCNc2nnc(-c3ccc(F)c(F)c3Nc3ccc(I)cc3F)o2)c1` [Example 41, {5-[3,4-Difluoro-2-(2-fluoro-4-iodo-phenylamino)-phenyl]-[1,3,4]oxadiazol-2-yl}-[2-(2,5-dimethoxy-phenyl)-ethyl]-amine], for which the “C26CPA1 % Inhibition @ 0.1 μM” value was determined as 0% and the “C26CPA1 % Inhibition @ 1 μM” value stood at 29.8%.

`COc1ccc(CCN(C)c2nnc(-c3ccc(F)c(F)c3Nc3ccc(I)cc3F)o2)cc1OC` [Example 42, {5-[3,4-Difluoro-2-(2-fluoro-4-iodo-phenylamino)-phenyl]-[1,3,4]oxadiazol-2-yl}-[2-(3,4-dimethoxy-phenyl)-ethyl]-methyl-amine]: the “C26CPA1 % Inhibition @ 0.1 μM” value was determined as 8.3% and the “C26CPA1 % Inhibition @ 1 μM” value amounted to 10%.

With `CN(CCc1ccncc1)c1nnc(-c2ccc(F)c(F)c2Nc2ccc(I)cc2F)o1` [Example 43, {5-[3,4-Difluoro-2-(2-fluoro-4-iodo-phenylamino)-phenyl]-[1,3,4]oxadiazol-2-yl}-methyl-(2-pyridin-4-yl-ethyl)-amine], the “C26CPA1 % Inhibition @ 0.1 μM” value was 26.6% and the “C26CPA1 % Inhibition @ 1 μM” value turned out to be 31.7%.

As to `CN(CCc1ccccn1)c1nnc(-c2ccc(F)c(F)c2Nc2ccc(I)cc2F)o1` [Example 44, {5-[3,4-Difluoro-2-(2-fluoro-4-iodo-phenylamino)-phenyl]-[1,3,4]oxadiazol-2-yl}-methyl-(2-pyridin-2-yl-ethyl)-amine], the “C26CPA1 % Inhibition @ 0.1 μM” value stood at 5.2% and the “C26CPA1 % Inhibition @ 1 μM” value was found to be 19%.

With `CCCNc1nnc(-c2ccc(F)c(F)c2Nc2ccc(I)cc2F)o1` [Example 45, {5-[3,4-Difluoro-2-(2-fluoro-4-iodo-phenylamino)-phenyl]-[1,3,4]oxadiazol-2-yl}-propyl-amine], the “C26CPA1 % Inhibition @ 0.1 μM” value was determined as 3.1% and the “C26CPA1 % Inhibition @ 1 μM” value came to 31.4%.

With `CCC(C)Nc1nnc(-c2ccc(F)c(F)c2Nc2ccc(I)cc2F)o1` (stereo not shown) [Example 46, sec-Butyl-{5-[3,4-difluoro-2-(2-fluoro-4-iodo-phenylamino)-phenyl]-[1,3,4]oxadiazol-2-yl}-amine], the “C26CPA1 % Inhibition @ 0.1 μM” value amounted to 31.2% and the “C26CPA1 % Inhibition @ 1 μM” value was 31.6%.

Consider `CC(C)(C)CNc1nnc(-c2ccc(F)c(F)c2Nc2ccc(I)cc2F)o1` [Example 47, {5-[3,4-Difluoro-2-(2-fluoro-4-iodo-phenylamino)-phenyl]-[1,3,4]oxadiazol-2-yl}-(2,2-dimethyl-propyl)-amine], for which the “C26CPA1 % Inhibition @ 0.1 μM” value stood at 18.9% and the “C26CPA1 % Inhibition @ 1 μM” value was 43.2%.

On to `CC(C)CNc1nnc(-c2ccc(F)c(F)c2Nc2ccc(I)cc2F)o1` [Example 48, {5-[3,4-Difluoro-2-(2-fluoro-4-iodo-phenylamino)-phenyl]-[1,3,4]oxadiazol-2-yl}-isobutyl-amine], for which the “C26CPA1 % Inhibition @ 0.1 μM” value is on record as 31.7% and the “C26CPA1 % Inhibition @ 1 μM” value amounted to 66.9%.
